According to patent US20080108562A1, “Treatment Of Bone Metastases By Means Of Pth Receptor Agonists” (Ferring B.V., priority 2004, published 2008):
“Also recorded” adds a separate entry of the source.

Experiments:
rats = conditions: rat, in vivo; cited from earlier work
[1] = tested on: adult C3H mice with murine CCL-11 (NCTC clone 2472) osteolytic sarcoma cells injected into the distal femur; assay: Spontaneous limb use in animal model for metastatic bone disease; assay type: in vivo; conditions: metastatic bone tumor animals, day 14
Method: (§1) An animal model for metastatic bone disease was established in adult C3H mice with murine sarcoma cells as described in Honore, et al., Neuroscience. (2000) 98(3):585-98 (see also Clohisy, et al. J Orthop Res. (1996) 14(3):396-402). In brief, murine CCL-11 (NCTC clone 2472) osteolytic sarcoma cells were injected into the distal femur. The injection site was closed with dental grade amalgam. Wounds were closed with wound clips. Wound clips were removed at day 6 to prevent interference with behavioral testing. Sham-injected and sarcoma-injected mice received daily subcutaneous injections of either 10 μl/kg vehicle or 10 μl/kg vehicle containing PTH (1-34) at 80 μg/ml concentration beginning after testing and radiographs were taken 6 d after injection of sarcoma cells. Treatment with PTH (1-34) or vehicle ended 14 d after injection, when final behavioral testing was done and the animals sacrificed.
Spontaneous limb use was assessed as described by Luger et al (2001). The mouse was placed in an empty mouse pan and observed while walking across the pan in a continuous motion. Limping and/or guarding behavior of the right (sarcoma treated) hindlimb was rated on the following scale: 0=complete lack of use, 1=partial non-use, 2=limping and guarding, 3=limping, 4=normal walking.

[2] = tested on: adult C3H mice with murine CCL-11 (NCTC clone 2472) osteolytic sarcoma cells injected into the distal femur; assay: Tactile allodynia (von Frey paw withdrawal threshold) in animal model for metastatic bone disease; assay type: in vivo; conditions: metastatic bone tumor animals, day 14
Method: as §1, with “Treatment with PTH (1-34) or vehicle ended 14 d after injection, when final behavioral testing was done and the animals sacrificed.” left out
Tactile allodynia was determined in the manner described by Chaplan et al. J Neurosci Methods (1994) 53(1):55-63. Paw withdrawal threshold was determined in response to probing with calibrated von Frey filaments. […] The 50% paw withdrawal threshold was determined by the non-parametric method of Dixon (Dixon, Annu Rev Pharmacol Toxicol 20:441-462, 1980). […] The 50% paw withdrawal threshold was determined as (10^[Xf+kδ])/10,000, where Xf=the value of the last von Frey filament employed, k=Dixon value for the positive/negative pattern, and δ=the mean (log) difference between stimuli. […]

[3] = tested on: adult C3H mice with murine CCL-11 (NCTC clone 2472) osteolytic sarcoma cells injected into the distal femur; assay: Radiological analysis of bone density in animal model for metastatic bone disease; assay type: in vivo
Method: as §1
[…] Mice were lightly anesthetized to prevent movement during the x-ray. The radiographs of the mouse femurs were scanned at maximal resolution (2400 dpi) and saved in digital grayscale format (TIFF). The grayscale levels were standardized for all radiographs by setting the amalgam region to white (grayscale value of 255) and the lower limit of the grayscale was set to the darkest pixels of the scanned image. The grayscale values correspond to the luminosity of the scanned images.
The images were analyzed with Metamorph (Universal Imaging Corp, West Chester, Pa.). The bones were divided into 3 equal regions. Data were taken from the lower region at the site were sarcoma cells were injected. Thresholding was standardized to include all pixels with grayscale values between 2 to 76. Since grayscale values are related to luminosity, an increase in the threshold area represents an increase in darker, or lower density, bone area. The integrated intensity values for the regions were determined with Metamorph. Significant decreases in the intensity of a region indicates a significant reduction in bone density. […]

[4] = tested on: adult C3H mice with murine CCL-11 (NCTC clone 2472) osteolytic sarcoma cells injected into the distal femur; assay: Flinching and guarding behavior in animal model for metastatic bone disease; assay type: in vivo; conditions: metastatic bone tumor animals, day 14
Method: as §1
To assess flinching and guarding behavior, animals were placed in raised plexiglass chambers with a wire grid floor for observation of flinching and guarding of the right hindlimb. The mice were allowed to acclimate to the chamber for 20 minutes. Guarding and flinching behaviors of each mouse were measured for 2 minutes. The number of flinches were counted, and the time spent guarding the foot (the foot is lifted off of the floor) was measured.

PTH receptor = target: T1, PTH receptor (Homo sapiens, UniProt Q03431); conditions: bone-related activities; relative to native 84 amino-acid hormone; cited from earlier work
T1 sequence (Q03431 27-593): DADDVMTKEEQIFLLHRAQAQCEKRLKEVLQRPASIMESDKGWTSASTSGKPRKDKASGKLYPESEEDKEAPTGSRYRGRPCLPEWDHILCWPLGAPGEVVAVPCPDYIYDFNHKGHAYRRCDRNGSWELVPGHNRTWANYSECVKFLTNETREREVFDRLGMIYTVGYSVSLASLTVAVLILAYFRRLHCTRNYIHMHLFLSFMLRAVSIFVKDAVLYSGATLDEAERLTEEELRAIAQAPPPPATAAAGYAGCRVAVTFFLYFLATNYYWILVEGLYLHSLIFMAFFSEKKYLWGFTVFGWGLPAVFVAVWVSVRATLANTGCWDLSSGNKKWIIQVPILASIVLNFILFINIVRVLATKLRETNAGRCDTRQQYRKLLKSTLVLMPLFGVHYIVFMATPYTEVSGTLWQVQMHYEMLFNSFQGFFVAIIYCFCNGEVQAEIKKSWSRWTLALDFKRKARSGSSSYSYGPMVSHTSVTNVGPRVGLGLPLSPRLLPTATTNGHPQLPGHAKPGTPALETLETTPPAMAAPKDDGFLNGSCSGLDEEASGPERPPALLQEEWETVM

Substance: teriparatide acetate
- risk of osteosarcoma (a malignant bone tumor) (rats): increased risk of osteosarcoma

Substance: PTH(1-34): truncated form of parathyroid hormone, residues 1-34; PTH receptor agonist tested in the mouse model (SVSEIQLMHNLGKHLNSMERVEWLRKKLQDVHNF; listed as Homo sapiens)
- limb use [1]: ameloriated pain
- limb use ([1]; listed as PTH (1-34)): returned to near normal levels
- tactile hypersensitivity (evoked pain) [2]: not effected
- tactile hypersensitivity (evoked pain) ([2]; listed as PTH (1-34)): did not effect
- bone density (optical density of x-ray radiographs) ([3]; normal (sham-injected) animals, daily s.c. PTH(1-34), day 14): some bone density increase
- bone density (optical density of x-ray radiographs) ([3]; sarcoma bearing animals, daily s.c. from day 6, day 14): near normal bone density
- bone density (optical density of x-ray radiographs) ([3]; sarcoma bearing animals, day 17, versus normal untreated animals): increase in density over that of normal untreated animals
- limb guarding [4]: ameloriated pain; also recorded: significantly reduced
- spontaneous pain (spontaneous flinching) [4]: ameloriated pain

Substance: PTH(1-25): carboxyl-terminal truncation of PTH(1-34) (SVSEIQLMHNLGKHLNSMERVEWLR; UniProt P01270 32-56, looked up, fragment)
- agonist activity of PTH fragment (PTH receptor): essentially inactive
